Results: paper PMC10366102, “Dose escalation and expansion cohorts in patients with advanced breast cancer in a Phase I study of the CDK7-inhibitor samuraciclib” (Nature Communications, 2023)
“And” between values parts separate entries of the source, which are not always exact repeats. Equal entries are not always repeated. Where two headings read alike, the source gives them in different places.

What was measured:
[1] = system: advanced solid malignancies; test: Module 1A anti-tumor activity (RECIST V1.1, PSA); type: in vivo, human
From the text: treatment RECIST assessment. […]
number of patients in the particular analysis population. Duration of response (DoR) was defined as the time from documentation of tumor response to disease progression. Progression-free survival (PFS) was […]
cause, whichever occurred first. Efficacy results were summarized descriptively and Kaplan -Meier plots provided where appropriate. […]

[2] = Module 4 food effect study; type: in vivo, human
Method: Carrick Therapeutics CT7001_001, Volume 3, Module 1, Part B-1 (TNBC) […]
in a test using the whole-cell patch-clamp technique (human embryonic kidney [HEK] cells transfected with hERG), and the CT7001 IC50 in the K+ channel was determined to be greater […]
Cardiovascular toxicity potential was also studied in vivo in dogs. Oral administration of 5, 15, and 20 mg/kg CT7001 had no effect on haemodynamic parameters, ECG parameters, or body temperature in the dog, compared with control article (vehicle) administration.
Effects of CT7001 on the central nervous system (CNS [Irwin]) and respiratory systems were […]
CT7001 has low mutagenic potential. At concentrations up to the lower limit of toxicity, it induced no mutations in a five strains Ames test.
2.3.2 Current Clinical Data of CT7001
A first-in-human multi-module Phase I/II clinical study commenced in November 2017 […]
only clinical study conducted to date.
The single- and multiple-ascending dose Phase 1a part of the study (Module 1, Part A) is completed. 33 dosed patients have completed this part of Module 1 (120, 240, 480 mg and a step-down dose level of 360 mg, all taken once daily (OD), and 180 mg given twice a day (BID), all in a fasted state). […]
Module 4 evaluated the effect of food on CT7001 bioavailability in cancer patients. […]

[3] = system: CYP2D6; set-up: method as in ref IB; conditions: human microsomes; ref IB; cited from earlier work
[4] = set-up: method as in ref IB; conditions: rat microsomes; ref IB; cited from earlier work
[5] = system: Ames test strains; set-up: method as in ref IB; conditions: up to the lower limit of toxicity; ref IB; cited from earlier work
[6] = system: patient-derived xenograft models of TNBC; set-up: method as in Bahl et al, 2017; conditions: ref Bahl et al, 2017; cited from earlier work
[7] = system: dogs; conditions: cited from earlier work; for AUC0-t: Dog, 20 mg/kg/day oral, ref IB
[8] = Module 1A, 36 evaluable patients
[9] = two castrate-resistant prostate cancer patients

CC(C)c1cnn2c(NCc3ccccc3)cc(NC[C@H]3CCNC[C@@H]3O)nc12 [samuraciclib, Samuraciclib]
Best change in lesion size on CT scan ([1]; 1 colorectal cancer patient, 120 mg): -21% | Decline in cancer antigen CA 15-3 ([1]; 1 patient with HR-positive BC, interim): 30% | Duration of stable disease ([1]; 1 patient, HR-positive BC, 240 mg, ongoing): […] | Duration of stable disease ([1]; 1 patient, castrate-refractory prostate cancer, 240 mg, cut-off 24-September-2018): […] | Duration of stable disease ([1]; 1 patient, castrate-refractory prostate cancer, 360 mg, ongoing): […] | Duration of stable disease ([1]; 1 patient, chondrosarcoma, 360 mg, ongoing): […] | Duration of stable disease ([1]; 1 patient, oesophageal cancer, 240 mg): […] | Duration of stable disease ([1]; 1 patient, small-cell lung cancer, 240 mg): […] | Decline in PSA ([1]; 2/2 patients with castrate-refractory prostate cancer, interim, listed as CT7001): 45% and 30% | Duration of stable disease ([1]; 2 patients, colorectal cancer, 120 mg, each): […] | Best objective response: Complete response ([1]; Module 1A N = 36): 0 n (%) | Best objective response: Partial response ([1]; Module 1A N = 36): 1 (2.8) n (%) | Best objective response: Progressive disease ([1]; Module 1A N = 36): 17 (47.2) n (%) | Best objective response: Stable disease ([1]; Module 1A N = 36): […] | Disease control rate ([1]; Module 1A N = 36): 19 (52.8) n (%) | Disease control rate [1, 8]: 53% and 52.8% | Patients maintaining stable disease ≥ 12 weeks [1, 8]: 38.9% | Duration of partial response ([1]; heavily pre-treated HR+ breast cancer patient, 240 mg OD monotherapy): […] | Duration of PSA reduction [1, 9]: […] | Reduction in PSA compared to baseline [1, 9]: 28% and 44% | Food effect on exposure or % variability [2]: no food effect was seen | IC50 [3]: […] | Intrinsic clearance [4]: high | Mutations in five strains Ames test [5]: no mutations | Activity in vivo [6]: encouraging activity | AUC0-t ([7]; Female): 5010 ng·h/mL | AUC0-t ([7]; Male): 3880 ng·h/mL | Highest non-severely toxic dose (HNSTD) ([7]; dog, in vivo): 20 mg/kg/day
